{"source": "patent US20250008956A1", "about": "“COMPOSITIONS AND A METHOD OF IMPROVING PLANT HEALTH AND CONTROLLING INSECTS” (UPL LIMITED, priority 2021, published 2025)", "format_in_all_cases": "in vivo", "key": {"rice crop [1]": {"test_system": "rice crop", "experiment": "Dead heart count in rice crop", "conditions": "GR, g a.i./ha: Flupyrimin 150, Cartap 1000, Cartap + EMA 581, Fipronil 60; for Dead hearts (count) 7 DAA: 7 days after application; for Dead hearts (count) 14 DAA: 14 days after application; for Dead hearts (count) 21 DAA: 21 days after application; for Dead hearts (count) 28 DAA: 28 days after application; for Dead hearts (count) Pre-count: pre-count before application", "text": "(§1) Injury in plants is often first noticed when the youngest partially unfurled leaf of the plant begins to whiter and die, resulting in a condition called dead heart. Dead hearts can be caused by any stem borer. Typical bore holes will be seen on the stem. Usually, a single larva is seen inside the stem. It remains inside the stem and feeds on the internal contents. The shoot of the affected plant can be pulled off easily, a symptom known as dead heart. At maturity, the grains become chaffy, which is known as white ear and eventually the whole plant finally dies.\n(§2) The phytotonic effect of flupyrimin in rice crop in terms of the dead heart count, number of ears, productive tillers/hill and the hill stability were determined.\nThe observations were made at 7DAA, 14 DAA, 21 DAA and 28 DAA (days after application)."}, "rice crop [2]": {"test_system": "rice crop", "experiment": "White ear count in rice crop", "conditions": "GR, g a.i./ha: Flupyrimin 150, Cartap 1000, Cartap + EMA 581, Fipronil 60", "text": "as §1, §2"}, "rice crop [3]": {"test_system": "rice crop", "experiment": "Number of tillers and productive tillers per hill in rice crop", "conditions": "for No. of tillers/hill at 45 DAA / No. of productive tillers/hill at heading: rice, GR, g a.i./ha: Flupyrimin 150, Cartap 1000, Cartap + EMA 581, Fipronil 60"}, "rice": {"test_system": "rice", "experiment": "Hill stability test (tiller sturdiness, girth) in rice", "conditions": "flupyrimin composition (2% GR)", "method": "The hill stability test was performed to determine the tiller strength of the hill. Accordingly, rice was subjected to flupyrimin treatment at 23 days after transplanting (DAT) and observations were taken at 20 DAA (days after application).\nHill stability is an important plant growth feature, as it protects the crop from lodging. It becomes especially important in tall varieties and in areas prone to high winds, cyclones, heavy rains etc. Due to hill stability, the plant is able to sustain the natural forces. Hill stability is also important in case of high pest and disease pressure, which makes the plant weak and loses the tiller strength."}, "wheat [4]": {"test_system": "wheat", "experiment": "% germination of wheat seed after seed treatment", "conditions": "seed treatment 500 g/L FS", "method": "The present inventors have observed the phytotonic effect of flupyrimin in wheat by determining the % germination, plant height, root length (cm) and plant vigor The seeds were treated with 500 g/L flupyrimin flowable concentrate (FS) formulation. […]"}, "wheat [5]": {"test_system": "wheat", "experiment": "Plant height, root length, tillers and plant vigor in wheat after seed treatment", "method": "(§3) The present inventors have observed the phytotonic effect of flupyrimin in wheat by determining the % germination, plant height, root length (cm) and plant vigor The seeds were treated with 500 g/L flupyrimin flowable concentrate (FS) formulation. The observations were made at 30 DAS and 45 DAS (days after seeding)."}, "wheat [6]": {"test_system": "wheat", "experiment": "Yield and test weight in wheat after seed treatment", "parameters": "Test weight (1000 grain weight): unit not given here"}, "mustard": {"test_system": "mustard", "experiment": "Plant height, root length and plant vigor in mustard after seed treatment", "conditions": "500 g/L FS", "method": "as §3, with “mustard seeds” for “wheat”, “vigor.” for “vigor”"}, "[7]": {"test_system": "Nilaparvata lugens BPH (Brown plant hopper)", "experiment": "Brown plant hopper infestation after application", "conditions": "up-to 45 Days After application of composition comprising flupyrimin and/or a salt thereof"}, "[8]": {"conditions": "1.2 g AI/kg of seed (2.4 ml/kg)"}, "[9]": {"conditions": "2.0 g AI/kg of seed (4.0 ml/kg)"}}, "data": [{"smiles": "N#Cc1nn(-c2c(Cl)cc(C(F)(F)F)cc2Cl)c(N)c1[S+]([O-])C(F)(F)F", "note": "(centres unmarked) [Fipronil]", "values": [{"measurement": "Dead hearts (count) 7 DAA", "setting": "rice crop [1]", "result": 0.00, "unit": "count"}, {"measurement": "Dead hearts (count) 14 DAA", "setting": "rice crop [1]", "result": 0.40, "unit": "count"}, {"measurement": "Dead hearts (count) 21 DAA", "setting": "rice crop [1]", "result": 2.19, "unit": "count"}, {"measurement": "Dead hearts (count) 28 DAA", "setting": "rice crop [1]", "result": 1.24, "unit": "count"}, {"measurement": "Dead hearts (count) Pre-count", "setting": "rice crop [1]", "result": 0.00, "unit": "count"}, {"measurement": "White ear/hill at heading", "setting": "rice crop [2]", "result": 1.27}, {"measurement": "No. of tillers/hill at 45 DAA", "setting": "rice crop [3]", "result": 19}, {"measurement": "No. of productive tillers/hill at heading", "setting": "rice crop [3]", "result": 15.63}]}, {"smiles": "O=C(/N=c1\\ccccn1Cc1ccc(Cl)nc1)C(F)(F)F", "note": "[Flupyrimin, N-[(E)-1-(6-chloro-3-pyridinylmethyl)pyridin-2 (1H)-ylidene]-2,2,2-trifluoroacetamide]", "values": [{"measurement": "Dead hearts (count) 7 DAA", "setting": "rice crop [1]", "result": 0.00, "unit": "count"}, {"measurement": "Dead hearts (count) 14 DAA", "setting": "rice crop [1]", "result": 0.00, "unit": "count"}, {"measurement": "Dead hearts (count) 21 DAA", "setting": "rice crop [1]", "result": 0.04, "unit": "count"}, {"measurement": "Dead hearts (count) 28 DAA", "setting": "rice crop [1]", "result": 0.01, "unit": "count"}, {"measurement": "Dead hearts (count) Pre-count", "setting": "rice crop [1]", "result": 0.00, "unit": "count"}, {"measurement": "White ear/hill at heading", "setting": "rice crop [2]", "result": 0.17}, {"measurement": "Greater number of tillers against the market standards (average)", "setting": "rice crop [3]; rice crop, granular formulation", "result": "2-3"}, {"measurement": "No. of tillers/hill at 45 DAA", "setting": "rice crop [3]", "result": 22.47}, {"measurement": "No. of productive tillers/hill at heading", "setting": "rice crop [3]", "result": 19.63}, {"measurement": "Girth of tillers compared to untreated rice", "setting": "rice", "result": "almost twice the girth"}, {"measurement": "% Germination of Wheat Seed 6 DAS", "setting": "wheat [4]; [8]", "result": 92.0, "unit": "%"}, {"measurement": "% Germination of Wheat Seed 9 DAS", "setting": "wheat [4]; [8]", "result": 93.0, "unit": "%"}, {"measurement": "% Germination of Wheat Seed 12 DAS", "setting": "wheat [4]; [8]", "result": 95.5, "unit": "%"}, {"measurement": "% Germination of Wheat Seed 6 DAS", "setting": "wheat [4]; [9]", "result": 92.0, "unit": "%"}, {"measurement": "% Germination of Wheat Seed 9 DAS", "setting": "wheat [4]; [9]", "result": 93.8, "unit": "%"}, {"measurement": "% Germination of Wheat Seed 12 DAS", "setting": "wheat [4]; [9]", "result": 96.0, "unit": "%"}, {"measurement": "No. of tillers/plant 30 DAS", "setting": "wheat [5]; [8]", "result": 5.8}, {"measurement": "Plant Height (cm) 30 DAS", "setting": "wheat [5]; [8]", "result": 42.4, "unit": "cm"}, {"measurement": "Plant Vigor (0-5 Index scale) 30 DAS", "setting": "wheat [5]; [8]", "result": "5.0 0-5 Index scale"}, {"measurement": "Root length (cm) 30 DAS", "setting": "wheat [5]; [8]", "result": 11.5, "unit": "cm"}, {"measurement": "No. of tillers/plant 45 DAS", "setting": "wheat [5]; [8]", "result": 6.4}, {"measurement": "Plant Height (cm) 45 DAS", "setting": "wheat [5]; [8]", "result": 57.9, "unit": "cm"}, {"measurement": "Plant Vigor (0-5 Index scale) 45 DAS", "setting": "wheat [5]; [8]", "result": "5.0 0-5 Index scale"}, {"measurement": "Root length (cm) 45 DAS", "setting": "wheat [5]; [8]", "result": 12.3, "unit": "cm"}, {"measurement": "No. of tillers/plant 30 DAS", "setting": "wheat [5]; [9]", "result": 5.8}, {"measurement": "Plant Height (cm) 30 DAS", "setting": "wheat [5]; [9]", "result": 43.3, "unit": "cm"}, {"measurement": "Plant Vigor (0-5 Index scale) 30 DAS", "setting": "wheat [5]; [9]", "result": "5.0 0-5 Index scale"}, {"measurement": "Root length (cm) 30 DAS", "setting": "wheat [5]; [9]", "result": 11.8, "unit": "cm"}, {"measurement": "No. of tillers/plant 45 DAS", "setting": "wheat [5]; [9]", "result": 6.5}, {"measurement": "Plant Height (cm) 45 DAS", "setting": "wheat [5]; [9]", "result": 58.1, "unit": "cm"}, {"measurement": "Plant Vigor (0-5 Index scale) 45 DAS", "setting": "wheat [5]; [9]", "result": "5.0 0-5 Index scale"}, {"measurement": "Root length (cm) 45 DAS", "setting": "wheat [5]; [9]", "result": 12.7, "unit": "cm"}, {"measurement": "Test weight (1000 grain weight)", "setting": "wheat [6]; [8]", "result": 55.3}, {"measurement": "Yield (Qt/ha)", "setting": "wheat [6]; [8]", "result": 37.4, "unit": "Qt/ha"}, {"measurement": "Test weight (1000 grain weight)", "setting": "wheat [6]; [9]", "result": 56.5}, {"measurement": "Yield (Qt/ha)", "setting": "wheat [6]; [9]", "result": 37.8, "unit": "Qt/ha"}, {"measurement": "Plant Height (cm) 30 DAS", "setting": "mustard; 4 g AI/kg of seed (8 ml/kg)", "result": 21.7, "unit": "cm"}, {"measurement": "Plant Vigor (0-5 Index scale) 30 DAS", "setting": "mustard; 4 g AI/kg of seed (8 ml/kg)", "result": "5.0 0-5 Index scale"}, {"measurement": "Root length (cm) 30 DAS", "setting": "mustard; 4 g AI/kg of seed (8 ml/kg)", "result": 18.2, "unit": "cm"}, {"measurement": "Plant Height (cm) 45 DAS", "setting": "mustard; 4 g AI/kg of seed (8 ml/kg)", "result": 93.2, "unit": "cm"}, {"measurement": "Plant Vigor (0-5 Index scale) 45 DAS", "setting": "mustard; 4 g AI/kg of seed (8 ml/kg)", "result": "5.0 0-5 Index scale"}, {"measurement": "Root length (cm) 45 DAS", "setting": "mustard; 4 g AI/kg of seed (8 ml/kg)", "result": 20.8, "unit": "cm"}, {"measurement": "Plant Height (cm) 30 DAS", "setting": "mustard; 6 g AI/kg of seed (12 ml/kg)", "result": 22.8, "unit": "cm"}, {"measurement": "Plant Vigor (0-5 Index scale) 30 DAS", "setting": "mustard; 6 g AI/kg of seed (12 ml/kg)", "result": "5.0 0-5 Index scale"}, {"measurement": "Root length (cm) 30 DAS", "setting": "mustard; 6 g AI/kg of seed (12 ml/kg)", "result": 18.3, "unit": "cm"}, {"measurement": "Plant Height (cm) 45 DAS", "setting": "mustard; 6 g AI/kg of seed (12 ml/kg)", "result": 95.6, "unit": "cm"}, {"measurement": "Plant Vigor (0-5 Index scale) 45 DAS", "setting": "mustard; 6 g AI/kg of seed (12 ml/kg)", "result": "5.0 0-5 Index scale"}, {"measurement": "Root length (cm) 45 DAS", "setting": "mustard; 6 g AI/kg of seed (12 ml/kg)", "result": 21.1, "unit": "cm"}, {"measurement": "Nilaparvata lugens BPH infestation", "setting": "[7]", "result": "no Nilaparvata lugens BPH (Brown plant hopper) infestation is found"}]}, {"smiles": "CN(C)C(CSC(N)=O)CSC(N)=O", "note": "[Cartap]", "values": [{"measurement": "Dead hearts (count) 7 DAA", "setting": "rice crop [1]", "result": 0.21, "unit": "count"}, {"measurement": "Dead hearts (count) 14 DAA", "setting": "rice crop [1]", "result": 1.54, "unit": "count"}, {"measurement": "Dead hearts (count) 21 DAA", "setting": "rice crop [1]", "result": 3.08, "unit": "count"}, {"measurement": "Dead hearts (count) 28 DAA", "setting": "rice crop [1]", "result": 2.17, "unit": "count"}, {"measurement": "Dead hearts (count) Pre-count", "setting": "rice crop [1]", "result": 0.00, "unit": "count"}, {"measurement": "White ear/hill at heading", "setting": "rice crop [2]", "result": 2.33}, {"measurement": "No. of tillers/hill at 45 DAA", "setting": "rice crop [3]", "result": 18.07}, {"measurement": "No. of productive tillers/hill at heading", "setting": "rice crop [3]", "result": 13.77}]}]}
